# From patent US7622446B2, “Polypeptides, derivatives and uses thereof” (The Open University, priority 2001, dated 2009)
# No end group written: not given here.
# Tests used:
# Format in all cases: in vivo, chick
# chicks [1] = experiment: β-amyloid 12-28 induced amnesia, passive avoidance task, strong training
# Description: (§1) Commercially obtained Ross Chunky eggs were incubated and hatched in brooders and held until 16±6 hours old. Chicks were placed in pairs in small aluminium pens. Following an equilibration period of an hour, the chicks were pretrained and trained essentially as described by Lossner and Rose (J. Neurochem. 41, 1357-1363 (1983), the contents of which are incorporated herein by reference). Pretraining involved three 10 s presentations of a small (2 mm diameter) white bead, at approximately 5 minute intervals. […] Two training techniques were used: “strong” and “weak” training. In both, 5 to 10 minutes after the last pre-training trial, chicks were trained by a 10 s presentation of a 4 mm diameter chrome bead, which had been dipped in the bitter-tasting methylanthranilate. Control chicks pecked at a water-coated or dry bead. In the “strong” version of the task, 100% methylanthranilate was used. In the “weak” version, 10% methylanthranilate was used. Chicks spontaneously pecked at the training or control beads within 20 s. Chicks that peck at the bitter bead evinced a disgust reaction and would not normally peck at a similar, but dry bead for some hours subsequently. At various times following training chicks were tested, by offering them a dry 4 mm diameter chrome bead, followed 10 minutes later by a small (2 mm diameter) white bead, each for 20 to 30 s. Animals were tested by an experimenter blind as to which treatment each chick had received. Chicks are considered to remember the task if they avoid the chrome bead at test but peck at the white bead (discriminate), and to have forgotten it if they peck at both beads. Recall is calculated as a percent avoidance score (percentage of chicks which avoid the chrome bead) and as a discrimination score (percentage of chicks which avoid the chrome but peck at the white bead). […] Each chick was trained and tested only once and differences between groups tested for statistical significance by g-test described by Sokal and Rohlf (Biometry: the Principles and Practice of Statistics in Biological Research (2nd edition), W H Freeman, New York (1981)), the contents of which are incorporated herein by reference. The validity of this particular training task used to assess memory formation is extensively discussed by Andrew (Neural and Behavioural Plasticity: the Use of the Domestic Chick as a Model, Oxford University Press, Oxford, UK (1991), the contents of which are incorporated herein by reference.
# (§2) Thus the learning experience is not committed to long-term memory. Agents that are memory enhancers can thus be tested. A memory enhancing agent, administered to a chick trained on the weak learning task, produces an increase in retention—increased avoidance of the chrome bead—at 24 hours. That is, such memory enhancers help convert weak to strong learning by enabling the transition from shorter to longer-term memory.
# (§3) Bilateral intracranial injections ([…]) of either saline, or solutions in saline of different peptides (0.5 to 5 μg/hemisphere) homologous to different regions of the external domain of human APP were injected intracerebrally into a specific brain region, known to be required for memory formation (the intermediate hyperstriatum ventrale) at different time-points pre- or post-training using a […] fitted with a plastic sleeve to allow a penetration of 3 mm. After completion of the injection, the needle was kept in place for 5 s. Correct placement was ensured by using a specially designed headholder described by Davis et al (Physiol. Behav. 22, 177-184 (1979), the contents of which are incorporated herein by reference) and was routinely visually monitored postmortem. Peptides or other substances were administered at various times either before or after the training protocol. Chicks were tested at different time points post-training as described above.
# chicks [2] = experiment: Memory enhancement on weak training (10% methylanthranilate), passive avoidance task; details: for effect of differing doses on weak training (percent avoidance): 30 mins before training, RER 0.2, 1.0, 2.0 μg/hemisphere, Ac-RER 4.0, 6.0 μg/hemisphere
# Description: as §1, §2
# as §3, with “above. […]” for “above.”
# chicks [3] = experiment: APP-antisense induced amnesia, passive avoidance task, strong training; details: for effect on APP-antisense induced amnesia (percent avoidance): FIG. 5
# Description: Commercially obtained Ross Chunky eggs were incubated and hatched in brooders and held until 16±6 hours old. Chicks were placed in pairs in small aluminium pens. Following an equilibration period of an hour, the chicks were pretrained and trained essentially as described by Lossner and Rose (J. Neurochem. 41, 1357-1363 (1983), the contents of which are incorporated herein by reference). Pretraining involved three 10 s presentations of a small (2 mm diameter) white bead, at approximately 5 minute intervals. […] Two training techniques were used: “strong” and “weak” training. In both, 5 to 10 minutes after the last pre-training trial, chicks were trained by a 10 s presentation of a 4 mm diameter chrome bead, which had been dipped in the bitter-tasting methylanthranilate. Control chicks pecked at a water-coated or dry bead. In the “strong” version of the task, 100% methylanthranilate was used. In the “weak” version, 10% methylanthranilate was used. Chicks spontaneously pecked at the training or control beads within 20 s. Chicks that peck at the bitter bead evinced a disgust reaction and would not normally peck at a similar, but dry bead for some hours subsequently. At various times following training chicks were tested, by offering them a dry 4 mm diameter chrome bead, followed 10 minutes later by a small (2 mm diameter) white bead, each for 20 to 30 s. Animals were tested by an experimenter blind as to which treatment each chick had received. Chicks are considered to remember the task if they avoid the chrome bead at test but peck at the white bead (discriminate), and to have forgotten it if they peck at both beads. Recall is calculated as a percent avoidance score (percentage of chicks which avoid the chrome bead) and as a discrimination score (percentage of chicks which avoid the chrome but peck at the white bead). […]
# as §3, with “After completion of the injection, the needle was kept in place for 5 s.” left out, “Peptides or other substances were administered at various times either before or after the training protocol. Chicks were tested at different time points post-training as described above.” left out
# chicks [4] = experiment: anti-APP (mb22C11) induced amnesia, passive avoidance task; details: FIG. 4; mb22C11 30 minutes pretraining, peptide 5 minutes pretraining; memory tested 24 hours posttraining
# Description: Commercially obtained Ross Chunky eggs were incubated and hatched in brooders and held until 16±6 hours old. Chicks were placed in pairs in small aluminium pens. Following an equilibration period of an hour, the chicks were pretrained and trained essentially as described by Lossner and Rose (J. Neurochem. 41, 1357-1363 (1983), the contents of which are incorporated herein by reference). Pretraining involved three 10 s presentations of a small (2 mm diameter) white bead, at approximately 5 minute intervals. […] Two training techniques were used: “strong” and “weak” training. In both, 5 to 10 minutes after the last pre-training trial, chicks were trained by a 10 s presentation of a 4 mm diameter chrome bead, which had been dipped in the bitter-tasting methylanthranilate. Control chicks pecked at a water-coated or dry bead. In the “strong” version of the task, 100% methylanthranilate was used. In the “weak” version, 10% methylanthranilate was used. Chicks spontaneously pecked at the training or control beads within 20 s. Chicks that peck at the bitter bead evinced a disgust reaction and would not normally peck at a similar, but dry bead for some hours subsequently. […] Recall is calculated as a percent avoidance score (percentage of chicks which avoid the chrome bead) and as a discrimination score (percentage of chicks which avoid the chrome but peck at the white bead). […]
# [5] = FIG. 10, 2 μg/hemisphere 20 mins prior to training after β-amyloid 12-28 (2 μg/hemisphere) 30 mins prior to training, measured 20 mins after administration
# [6] = FIGS. 7-9, peptide 30 minutes pretraining, memory tested 24 hours posttraining
# [7] = AS oligodeoxynucleotide 12 hours pretraining, peptide 30 minutes pretraining, strong learning task
molecule,measurement,setting,value
CC(=O)NC(CCCNC(=N)N)C(=O)NC(CCC(=O)O)C(=O)OC(CCCNC(=N)N)C(=O)O (centres unmarked) [Ac-RER],effect on β-amyloid 12-28 induced amnesia (percent avoidance),chicks [1]; [5],less than that of RER
same,effect on β-amyloid 12-28 induced amnesia (percent avoidance),"chicks [1]; FIG. 10, 2 μg/hemisphere 20 mins prior to training after β-amyloid 12-28 (2 μg/hemisphere) 30 mins prior to training, measured 20 mins after administration, listed as AC-RER",have the effect of restoring memory
same,stability after administration (indicated by FIG. 10 results),"chicks [1]; FIG. 10, inferred from memory-restorative effect compared with RER",more stable after administration
same,effect on β-amyloid 12-28 induced amnesia (percent avoidance),"chicks [1]; FIG. 13, 4 μg/hemisphere 60, 20 or 30 mins prior to training (before, after or together with β-amyloid 12-28 2 μg/hemisphere)",has the effect of restoring memory
same,effect on weak training (percent avoidance),"chicks [2]; FIG. 11, 2 μg/hemisphere 30 mins before training",has the effect of improving the memory of weakly trained chicks
same,effect on weak training (percent avoidance),"chicks [2]; FIG. 11, 2 μg/hemisphere 60 mins before training","still significant, although less than 30 minutes after administration"
same,effect of differing doses on weak training (percent avoidance),chicks [2]; FIG. 12,have the effect of improving the memory of weakly-trained chicks
same,dose required to obtain a comparable effect on weak training,"chicks [2]; FIG. 12, Ac-RER compared with RER",higher doses of Ac-RER than of RER
same,stability after administration (indicated by FIG. 12 results),"chicks [2]; FIG. 12, inferred from the doses required",more stable after administration than RER
AKERLEAKHRERMSQVM [APP 319-335],effect on APP-antisense induced amnesia (percent avoidance: total avoidance and discrimination),"chicks [3]; FIG. 6, AS oligodeoxynucleotide 12 hours pretraining, peptide 30 minutes pretraining, tested 30 minutes posttraining",can prevent antisense induced memory loss
same,effect on weak training (percent avoidance),chicks [2]; [6],enhance memory at 24 hours
"AS oligodeoxynucleotide: 16-mer end-protected phosphodiester oligodeoxynucleotide 5′-CCC GAG GAC TGA GCC A-3′ (SEQ ID No: 21) against APP mRNA, antisense form (antisense CCCGAGGACTGAGCCA; end-protected phosphodiester DNA, nucleotides 2 and 13 modified, nature not given here) [reference compound]",effect of oligodeoxynucleotide on memory (percent avoidance),"chicks [3]; FIG. 5a, 0.6 to 1.0 μg in 2 μl, 12 hours pretraining, strong learning task",had a significant effect of memory loss
Arg-Glu-Arg (RER),effect on β-amyloid 12-28 induced amnesia (percent avoidance),chicks [1]; [5],have the effect of restoring memory
same,effect of differing doses on weak training (percent avoidance),chicks [2]; FIG. 12,have the effect of improving the memory of weakly-trained chicks
same,effect on weak training (percent avoidance),chicks [2]; [6],enhances memory at 24 hours
Arg-Glu-Arg-Met-Ser (RERMS),effect on β-amyloid 12-28 induced amnesia (percent avoidance),"chicks [1]; FIG. 3, β-amyloid 12-28 30 minutes pretraining, peptide 20 minutes pretraining, memory tested 24 hours posttraining",memory retention is restored
same,effect on anti-APP induced amnesia (percent avoidance),chicks [4],will prevent antibody induced memory loss
same,effect on APP-antisense induced amnesia (percent avoidance),chicks [3]; [7],avoided to a substantial extent
same,effect on weak training (percent avoidance),chicks [2]; [6],enhance memory at 24 hours
Arg-Ser-Ala-Glu-Arg (RSAER) [reference compound],effect on APP-antisense induced amnesia (percent avoidance),chicks [3]; [7],absent
